“And” between values parts separate entries of the source, which are not always exact repeats. Equal values may be shown once.
How the values were obtained:
PSMA (LS174T-PSMA cells) [1] = target: T1, PSMA (LS174T-PSMA cells) (Homo sapiens, UniProt Q04609); test: Competitive binding assay against 111In-labeled PSMA-617 using LS174T-PSMA cells; settings: on ice 2 h, 111In-labeled PSMA-617 as competitor, unlabeled ligand 0.01-300 nM
T1 construct: expressed in transfected cells
Description: (§1) IC50: The 50% inhibitory concentration (IC50) of the ligands was determined using LS174T-PSMA cells in a competitive binding assay. The LS174T-PSMA cells were cultured to confluency in 6-wells plates, followed by incubation on ice for 2 h in 1 mL of binding buffer (RPMI/0.5% BSA) with 50,000 cpm of ^111In-labeled PSMA-617 and a series of increasing concentrations (0.01-300 nM) of unlabeled PSMA ligands. After incubation, cells were washed with 2 ml PBS and lysed with 1.5 ml 0.1 M NaOH. Cell lysis was collected from the plate and the cell-associated activity was measured in a gamma-counter and IC50 values were calculated using GraphPad Prism software version 5.03. Lipophilicity: LogD values of all radiolabeled ligands were determined by adding 300,000 cpm (0.6-1.5 pmol) to a mixture of 3 ml PBS (pH 7.4) and 3 ml n-octanol. Tubes were vortexed vigorously for 1 min and centrifuged for 5 min at 201×g. The concentration of radioactivity in a defined volume of each layer was measured in a well-type gamma-counter.

PSMA (LS174T-PSMA cells) [2] = target: T1, PSMA (LS174T-PSMA cells); test: Alternative internalization assay in LS174T-PSMA cells; assay type: cell-based; settings: 2 h at 37° C.
Description: Alternative internalization assay: binding and internalization characteristics of all ligands were compared using LS174T-PSMA and wildtype LS174T cells, cultured to confluency in 6-wells plates. Cells were incubated with 50,000 counts per minute (cpm) ^111In- or ^99mTc-labeled PSMA ligand (0.1-0.25 pmol/well) in 1 ml binding buffer (RPMI/0.5% BSA) for 2 h at 37° C. Nonspecific binding was determined by co-incubation with 2-(phosphonomethyl) pentane-1,5-dioic acid (2-PMPA, 21.57 µM). Cells were washed with PBS and incubated with acid buffer (0.1 M acetic acid, 154 mM NaCl, pH 2.6) for 10 minutes at 0° C. to retrieve the membrane-bound fraction. After this, the membrane-bound fraction was collected, cells were washed, lysed with 1.5 ml 0.1 M NaOH and cell lysis (intracellular activity) was collected. Membrane-bound activity and intracellular activity fractions were measured in a gamma-counter (2480 WIZARD^2 Automatic Gamma Counter, PerkinElmer) (6,42).

[3] = Lipophilicity, LogD of radiolabeled ligands in PBS (pH 7.4) / n-octanol; assay type: physicochemical; settings: radiolabeled ligand
Description: as §1

PSMA (LS174T-PSMA cells) [4] = target: T1, PSMA (LS174T-PSMA cells); test: Binding and internalization assay with 111In-labelled ligands on PSMA-expressing LS174T-PSMA cells; assay type: cell-based; settings: for Average binding %, Internalized / Average binding %, Membrane bound / Average binding %, Total: 111In-labelled, 50,000 cpm, 2 h at 37° C., LS174T-PSMA cells
Description: Each labelled ligand (0.01 mL) was dissolved in PBS (0.5 mL) and diluted 1:10:100 in three tubes, resulting in tube 1 1×, tube 2 10× and tube 3 100× dilution. The tubes were measured by a gamma-counter to determine the counts per minute of known ligand concentrations. The calculated amounts of ligand were transferred from tubes 2 into new tubes and filled with binding buffer to total volume 0.5 mL. These solutions are needed for the binding and internalization assay.
Two days before the assay, four six-well plates were plated with 0.3-1.0 million PSMA-expressing LS174T-PSMA cells per well in culture medium (2 mL). On the day of the assay, the cells were washed with PBS. Binding buffer (0.5% BSA in RMPI 1640, 2 mL) and 50,000 counts per minute of radiolabelled PSMA-ligand (0.005 mL) were added from tubes prepared according to calculation with standards. Each ligand was examined in triplicate. The cells were incubated at 37° C. for 2 hours and after this the medium was removed. The cells were washed with ice-cold PBS and cooled to 0° C. After incubating the cells with acid buffer pH 2.6 (0.1M acetic acid, 0.15 M NaCl, 2 mL) for 10 minutes, the membrane-bound ligands were collected in tubes. The cells were washed with ice-cold PBS again and these fractions were collected as control. NaOH was added to the cells (0.1 M, 2 mL) for 10 minutes to lyse the cells and free the internalized ligands. The ^111In-radiocounts per minute of all fractions and standards were measured by a gamma-counter. From this, the ligand-PSMA binding percentages and internalization fraction were quantified.

T1 sequence (Q04609 whole entry): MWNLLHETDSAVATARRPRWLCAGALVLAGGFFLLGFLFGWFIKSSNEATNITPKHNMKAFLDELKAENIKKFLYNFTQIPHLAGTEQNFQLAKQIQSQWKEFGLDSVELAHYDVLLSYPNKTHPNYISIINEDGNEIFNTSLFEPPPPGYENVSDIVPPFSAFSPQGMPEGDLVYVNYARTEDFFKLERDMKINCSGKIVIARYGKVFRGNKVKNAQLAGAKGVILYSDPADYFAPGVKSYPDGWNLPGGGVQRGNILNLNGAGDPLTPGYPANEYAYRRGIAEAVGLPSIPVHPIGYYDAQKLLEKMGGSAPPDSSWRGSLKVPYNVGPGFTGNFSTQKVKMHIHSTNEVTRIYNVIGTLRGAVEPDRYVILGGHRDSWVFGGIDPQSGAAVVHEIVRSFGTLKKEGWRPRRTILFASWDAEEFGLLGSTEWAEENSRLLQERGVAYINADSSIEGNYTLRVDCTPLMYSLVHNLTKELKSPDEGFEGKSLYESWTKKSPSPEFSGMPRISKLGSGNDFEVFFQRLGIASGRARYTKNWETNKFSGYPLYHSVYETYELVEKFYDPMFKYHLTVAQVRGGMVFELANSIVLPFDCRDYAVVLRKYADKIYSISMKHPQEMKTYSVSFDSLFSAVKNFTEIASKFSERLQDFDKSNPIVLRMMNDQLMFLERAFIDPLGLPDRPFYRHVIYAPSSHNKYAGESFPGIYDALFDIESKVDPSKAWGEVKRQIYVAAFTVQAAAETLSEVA

Row | IC50 (PSMA (LS174T-PSMA cells) [1]) [nM] | Internalization Ratio (%) (PSMA (LS174T-PSMA cells) [2]) | LogD [3] | Structure (SMILES) | Average binding %, Internalized (PSMA (LS174T-PSMA cells) [4]) [%] | Average binding %, Membrane bound (PSMA (LS174T-PSMA cells) [4]) [%] | Average binding %, Total (PSMA (LS174T-PSMA cells) [4]) | total binding to PSMA expressing cells relative to PSMA-617 (PSMA (LS174T-PSMA cells) [4]; ratio of total binding percentages) [times]
1 | 475 | 61.0 +/− 12.8% | −3.5 +/− 0.01 | CC(=O)SCC(=O)NCC(=O)NCC(=O)NCC(=O)NC(CCCCNC(=O)CCCCC[N+]1=C(C=CC2=C(Oc3ccc(S(=O)(=O)O)cc3)C(=CC=C3N(CCCCS(=O)(=O)O)c4ccc(S(=O)(=O)O)cc4C3(C)C)CCC2)C(C)(C)c2cc(S(=O)(=O)O)ccc21)C(=O)NCCCCC(NC(=O)C(CCC(=O)O)NC(=O)c1cccnc1)C(=O)NCc1ccc(C(=O)NC(Cc2ccc3ccccc3c2)C(=O)NCCCCC(NC(=O)NC(CCC(=O)O)C(=O)O)C(=O)O)cc1 (stereo not shown) [Compound K12] | – | – | – | –
2 | 312 | 74.1 +/− 20.3% | −4.4 +/− 0.01 | CC1(C)C(=CC=C2CCCC(C=CC3=[N+](CCCCCC(=O)NCCCCC(NC(=O)CN4CCN(CC(=O)O)CCN(CC(=O)O)CCN(CC(=O)O)CC4)C(=O)NCCCCC(NC(=O)C(CCC(=O)O)NC(=O)c4cccnc4)C(=O)NCc4ccc(C(=O)NC(Cc5ccc6ccccc6c5)C(=O)NCCCCC(NC(=O)NC(CCC(=O)O)C(=O)O)C(=O)O)cc4)c4ccc(S(=O)(=O)O)cc4C3(C)C)=C2Oc2ccc(S(=O)(=O)O)cc2)N(CCCCS(=O)(=O)O)c2ccc(S(=O)(=O)O)cc21 (stereo not shown) [Compound K11] | – | – | – | –
3 | – | – | – | O=C(O)CC[C@H](NC(=O)N[C@@H](CCCCNC(=O)[C@H](Cc1ccc2ccccc2c1)NC(=O)c1ccc(CNC(=O)[C@H](CCCCNC(=O)CN2CCN(CC(=O)O)CCN(CC(=O)O)CCN(CC(=O)O)CC2)NC(=O)[C@H](CCC(=O)O)NC(=O)c2ccccc2)cc1)C(=O)O)C(=O)O [Compound K9] | 9.06 | 9.87 | 18.9% and 18.93% | 2.6
4 | 184 | 80.6 +/− 11.6% | −3.2 +/− 0.16 | CC1(C)C(/C=C/C2=C(Oc3ccc(S(=O)(=O)O)cc3)C(=C/C=C3/N(CCCCS(=O)(=O)O)c4ccc(S(=O)(=O)O)cc4C3(C)C)/CCC2)=[N+](CCCCCC(=O)NCCC(=O)N2Cc3ccccc3-c3c(cnn3CCCCC(NC(=O)CN3CCN(CC(=O)O)CCN(CC(=O)O)CCN(CC(=O)O)CC3)C(=O)NCCCC[C@H](NC(=O)[C@H](CCC(=O)O)NC(=O)c3cccnc3)C(=O)NCc3ccc(C(=O)N[C@@H](Cc4ccc5ccccc5c4)C(=O)NCCCC[C@H](NC(=O)N[C@@H](CCC(=O)O)C(=O)O)C(=O)O)cc3)-c3ccccc32)c2ccc(S(=O)(=O)O)cc21 (stereo partly shown) [Compound K13] | – | – | – | –

Row | Structure (SMILES) | IC50 (PSMA (LS174T-PSMA cells) [1]) [nM] | Internalization Ratio (%) (PSMA (LS174T-PSMA cells) [2]) | LogD [3] | Average binding %, Internalized (PSMA (LS174T-PSMA cells) [4]) [%] | Average binding %, Membrane bound (PSMA (LS174T-PSMA cells) [4]) [%] | Average binding %, Total (PSMA (LS174T-PSMA cells) [4]) | total binding to PSMA expressing cells relative to PSMA-617 (PSMA (LS174T-PSMA cells) [4]; ratio of total binding percentages) [times]
5 | O=C(O)CC[C@H](NC(=O)N[C@@H](CCCCNC(=O)[C@H](Cc1ccc2ccccc2c1)NC(=O)[C@H]1CC[C@H](CNC(=O)CN2CCN(CC(=O)O)CCN(CC(=O)O)CCN(CC(=O)O)CC2)CC1)C(=O)O)C(=O)O [PSMA-617, reference compound] | 8.5 | 48.4 +/− 12.4% | −4.1 +/− 0.01 | 3.39 | 3.80 | 7.19% | –

— patent publication US20250332290A1, “PSMA-TARGETING LIGANDS FOR MULTIMODAL APPLICATIONS” (STICHTING RADBOUD UNIVERSITAIR MEDISCH CENTRUM, priority 2021, published 2025)
